Test results reported in US6566047B1, “Method for identifying neurite-growth promoting agents” (The Regents of the University of Colorado, priority 1998, dated 2003).
“Also recorded” adds a separate entry of the source. Values belong to the compound of their own block, whether it stands above or below them.

What was measured:
growth cone PLA2 = assay: PLA2 assay in growth cone particles (GCPs); type: biochemical, rat; details: GCPs
Procedure: Growth Cone Particle (GCP) Isolation. GCPs were prepared as described by Pfenninger et al. (1983) and modified by Lohse et al., Dev. Brain Res., 96:38-96 (1996). Briefly, 18-day fetal brains were homogenized in approximately 8 volumes of 0.32 M sucrose containing 1 mM MgCl2, 2 mM TES buffer, pH 7.3, and 3 μM aprotinin. A low-speed supernatant (1,660 g×15 min) was loaded onto a discontinuous sucrose density gradient With steps of 0.83 M and 2.66 M sucrose containing MgCl2 and TES. The gradients were spun to equilibrium at 242,000 g for 40 min in a vertical rotor (Vti50, Beckman). The GCP fraction at the 0.32/0.83 M sucrose interface was collected and used for the experiments described below.
All assays were run in triplicate.

GCPs plated on laminin = assay: GCP release (detachment) assay on laminin; set-up: species or system rat; details: 20 min at 37° C., cytochalasin D 1 μM
Procedure: GCP Release Assay. Petri dishes (35 mm diameter) were coated with 10 μg mouse laminin in PBS by incubation at room temperature for 60 min with shaking. Dishes were subsequently rinsed three times with PBS to remove unbound laminin and then blocked with 5% non-fat dry milk (Carnation) in PBS for 30 min. After three PBS rinses to remove blocking agent, the dishes were ready for the addition of GCPs. […] After incubation for five min at 37° C. this buffered GCP preparation was added to the laminincoated petri dishes. Contact with the substratum was facilitated by centrifuging the dishes for 15 min at 5000 g (Beckman JS5.2 rotor) at room temperature, followed by incubation at 37° C. to allow adhesion site formation. After 10 min, unattached GCPs were removed by rinsing the dishes twice with 1× modified Krebs buffer. Plated GCPs were then challenged with repellent factor (TRAP or thrombin) for 20 min at 37° C. The supernatant containing released GCPs was collected and centrifuged for protein determination of the pellet. GCPs that remained attached after repellent treatment were removed with 5% sodium dodecyl sulfate (SDS) for protein assay. Protein was measured according to Lowry et al. (1951) as modified by Peterson (1983). Results of these experiments were expressed as the percentage of released versus total GCP protein in the assay.

[1] = system: growth cones in cultures of rat cerebral cortex; assay: Growth cone collapse assay in cortical neuron culture; type: cell-based; details: for effect of inhibitor pretreatment on thrombin- or TRAP-induced growth cone collapse: CDC 10 μM, indomethacin 25 μM, pretreatment 30-45 min
Procedure: Neuron Culture. Cerebral cortices were dissected from embryonic day 18 Sprague-Dawley rats, cut into explants of less than 1 mm^3 and cultured on either poly-D-lysine-coated coverglass (Assistent) or poly-D-lvsine-coated tissue culture plastic. After 24 hours in B27 neurobasal medium (NB) supplemented with 10% fetal bovine serum, cultures were switched to serum-free B27/NB. The cultures were incubated at 37° C. in 5% CO2 in air. Sprouting neurons were observed readily on day 1. On day 2 or 3, long neurites were present, and the cultures were used for collapse experiments.
Actin Staining. After experimentation, cultures were fixed by slow infusion of fixative (4% paraformaldehyde in 0.1 M phosphate buffer, pH 7.4) into the culture dishes over 10 min (Pfenninger and Maylié-Pfenninger, J. Cell Biol. 89:53-546 (1981)). Thereafter, the fixative was removed by rinsing three times with phosphate-buffered saline (PBS) containing 1 mM glycine. Cultures were then blocked with PBS/1% bovine serum albumin (BSA) and permeabilized by incubation in 0.02% Triton X-100 for 5 min. After three washes in PBS/BSA, cultures were incubated with Texas-Red-conjugated phalloidin for 30 min. Unbound phalloidin was washed away by two PBS rinses, after which the coverglasses were mounted in Slow-Fade Light on microscope slides. Images were recorded on 35 mm film using a Zeiss Axiophot fluorescence microscope equipped with epiillumination.
Growth Cone Collapse Assay. Prior to repellent factor treatment, some of the day 2-3 explant cultures were pre-incubated (at 37° C.) with inhibitor or vehicle control (dimethylsulfoxide or ethanol) for 30-60 min. Cultures were then challenged with a repellent factor or vehicle control for 1-30 min. In some experiments, live cultures were photographed with a Zeiss IM 35 inverted photo microscope equipped with a stage heater, while in others cultures were fixed (as above) after 7 minutes of repellent factor treatment. Growth cone collapse was assessed quantitatively in aldehyde-fixed cultures by grading the degree of collapse in a large number of randomly selected growth cones.

MAT-Lu cells = assay: Pseudopod morphometry (pseudopod length assay), MAT-Lu cells; type: cell-based, rat; details: for effect of inhibitor pretreatment on AA-induced pseudopod shortening: 15 min pretreatment, indomethacin 10 ηm, NDGA 25 μM, CDC 63 and 126 nM; for effect of agent alone on pseudopod length: typically 15 min exposure
Procedure: Pseudopod Morphometry. To study the effects of various agents on pseudopods on a short-term basis, we measured pseudopod lengths. Cells plated in 35-mm diameter dishes at low density (1×10^4 per dish) were incubated overnight, tie medium was changed, and the experiments were run four hours later. First, cultures were shifted to serum-free medium, which was replaced one hour later by serum-free medium with or without the various agents (thrombin, AA or HETEs). Care was taken to avoid heat and light inactivation of the eicosanoids. Culture dishes were placed on a Zeiss inverted microscope equipped with a heated stage and viewed with a 16×phase contrast objective lens. Randomly selected fields of the cultures, containing generally about 20 cells each, were recorded, digitized and stored in the computer at the onset of the experiment and at different times thereafter.
In some cases, individual cells were monitored over different periods of time immediately after introduction of the reagent, either by mixing it into the medium or by applying it locally to one end of the cell. Local application was done with a “puffer” system that expels microliter amounts of the desired solution from a micromanipulator-controlled micropipette tip. Cell morphology was recorded, and the captured images were analyzed with a Power Macintosh computer using NIH Image. Cell process length was measured from the center of the nucleus to the end of the process. Characterization of the frequencies of pseudopod lengths, at a fixed time for each of a sequence of concentrations of reagent, utilized a gamma regression model with an inverse quadratic linear predictor (McCullagh and Nelder, Generalized Linear Models 2d ed., pp. 291-292 (Chapman & Hall, 1989), separately fit to each concentration data set. Although no formal goodness-of-fit tests were carried out, in virtually every case there was good visual representation of the pattern of response (see FIG. 14). Most data, however, are shown as whisker-box plots, where the center point represents the 50%, the ends of the box the […] and 75%, and the “whiskers” the 5% and 95% quantiles (e.g., FIG. 11). Statistical comparisons of pseudopod lengths for different treatments were done by standard non-parametric techniques (Wilcoxon Rank Sum or Kruskal-Wallis Tests), as judged appropriate. Polynomial curve fittings were done by standard least-squares techniques. Statistical analyses and graphing were done with the use of SAS procedures: Reg, Phreg, Nparlway and Plot (SAS institute Inc., Cary, N.C.).

12-Lox = assay: Eicosanoid (HETE) generation in GCPs; type: biochemical, rat
Procedure: Eicosanoid Assays. Eicosanoid production in GCPs was measured by metabolic labelling from ^14C-AA or ^14C-AA-PC or by mass spectrometric detection. […] To measure Lox activity directly, without PLA2 involvement, ^3H-AA was the substrate of choice. Reactions were stopped by the addition of chloroform/methanol as for the phospholipase assays. Reaction products were extracted as described by Birkle et al., Neuromethods, vol. 7, pp.227-244 (Humana Press, N.J. 1988), spotted on pre-activated si gel 60 TLC plates, and the plates developed in the upper phase of ethyl acetate/isooctane/acetic acid/water (100:60:20:100). AA and HETEs were identified by co-migration with standards. Appropriate bands were counted by liquid scintillation spectrometry.
For mass-spectrometric (MS) identification of HETEs, two different strategies were pursued:
(1) the appropriate bands from non-labelled samples (PC substrate) were scraped from the TLC plate into ether/methanol (9:1) and stored under N2 at −20° C. Authentic 12(S)-HETE, run alongside in the same manner, was used as a standard. Just prior to analysis, samples were passed over an SPE filter to eliminate silica particles, dried under argon, resuspended in 500 μl ethanol, and injected (at 3 μl/min) into a Finnigan LCQ quadrupole ion trap mass spectrometer (Finnigan MAT, San Jose, Calif.) equipped with an electrospray ionization source. All spectra were acquired at a capillary temperature of 80° C., and ion guide voltages were tuned to maximize the abundance of the deprotonated ion species [M-H]^− in negative mode. In order to generate a spectrum, typically 100 single scans were averaged.
(2) For the other strategy (liquid chromatography/tandem MS, LC/MS^2), the reaction substrate consisted of 3.5 μM AA, with the addition of 3.5 μM deuterated AA (AA-D8) plus 1 μCi ^3H-AA to track reaction products by mass and radioactivity, respectively. Reactions were stopped with ice-cold ethanol, the mixtures kept overnight at −20° C. under N2, and the proteins spun out The supernatants were diluted with H2O and loaded onto 1-ml C18 Sep-Pak columns (Varian). After washing with H2O, eicosanoid was eluted with 2 ml methanol. These samples were resolved by reverse-phase HPLC, and the eluted fractions analyzed by tandem MS on-line (MacMillan and Murphy, 1995). Collision-induced decomposition of HETE isomers produced characteristic fragments that were identified at the second MS stage.

protein kinase C (PKC) = assay: MARCKS phosphorylation by PKC in isolated GCPs; type: biochemical, rat; details: isolated growth cones
Source text: FIG. 7A. Thrombin stimulates MARCKS phosphorylation in a 12-LOX-dependent manner. FIG. 7B. 12(S)-HETE stimulates MARCKS phosphorylation by PKC in isolated GCPs. […] Polypeptides were resolved by SDS-PAGE. MARCKS phosphorylation was quantified by phosphorimaging.

Compound: SFLLRN [TRAP]
activation of growth cone cPLA2/PLA2 (growth cone PLA2): clearly stimulated PLA2, but to a considerably lesser degree
activation of growth cone cPLA2/PLA2 (growth cone PLA2; listed as TRAPs): much less effectively
effect on GCP detachment from laminin (GCPs plated on laminin): mimics the effect
effect on GCP detachment from laminin (GCPs plated on laminin; listed as TRAPs): much less effectively
growth cone collapse, agent alone ([1]; thrombin 100 nM, TRAP (100 mM), 12(S)-HETE 10^−7 M): qualitatively the same effect as thrombin, but the change is not as pronounced

Compound: CC(Cc1ccc(O)c(O)c1)C(C)Cc1ccc(O)c(O)c1 (stereo not drawn) [NDGA, nordihydroguaiaretic acid]
effect of inhibitor pretreatment on AA-induced pseudopod shortening (MAT-Lu cells): blocked the AA effect completely; also recorded: inhibited the pseudopod shortening
effect of agent alone on pseudopod length (MAT-Lu cells): had no effect on pseudopod lengths
effect of inhibitor pretreatment on thrombin- or TRAP-induced growth cone collapse [1]: protects growth cones from thrombin- or TRAP-induced collapse
effect on conversion of 14C-AA into 12(S)-HETE (12-Lox; 60 min, 37° C.): blocked

Compound: insulin: insulin from Collaborative Biomedical Products
activation of growth cone cPLA2/PLA2 (growth cone PLA2): failed to stimulate PLA2 significantly
net activity (pmol/min/mg protein) (growth cone PLA2; Table 3c, substrate PI, BDNF 100, IGF-1 0.75, insulin 1, thrombin 200 nM, control 159 ± 6.2): 158 ± 8.4 pmol/min/mg protein

Compound: CCCCC[C@H](O)/C=C/C=C\C/C=C\C/C=C\CCCC(=O)O [15(S)-HETE, 15(S)-hydroxyeicosatetraenoic acid]
effect of agent alone on pseudopod length (MAT-Lu cells): about as active as 12(S)-HETE; also recorded: reduced pseudopod lengths of MAT-Lu cells in a biphasic manner

Compound: CCCCC/C=C\C/C=C\C/C=C\C=C\[C@@H](O)CCCC(=O)O [5(S)-HETE]
effect of agent alone on pseudopod length (MAT-Lu cells): essentially inactive; also recorded: had no effect on pseudopod length

Compound: COc1ccc2c(c1)c(CC(=O)O)c(C)n2C(=O)c1ccc(Cl)cc1 [indomethacin]
effect of inhibitor pretreatment on AA-induced pseudopod shortening (MAT-Lu cells): did not influence the AA effect; also recorded: had no effect at all
effect of inhibitor pretreatment on thrombin- or TRAP-induced growth cone collapse [1]: has no effect on control or thrombin treatment of growth cones
effect of inhibitor on thrombin-stimulated HETE production from AA (12-Lox; 3H-AA substrate): not

Compound: NGF: growth factor whose receptors are present on GCPs
activation of growth cone cPLA2/PLA2 (growth cone PLA2): only weakly or not at all

Compound: C=C1[C@@H](C)[C@H]2[C@H](Cc3ccccc3)NC(=O)[C@]23[C@H](OC(C)=O)/C=C/[C@@](C)(O)C(=O)[C@@H](C)C/C=C/[C@H]3[C@@H]1O [cytochalasin D]
effect on GCP detachment from laminin (GCPs plated on laminin): caused considerable release of GCPs by themselves

Compound: CC(=O)C(C)=NO [BDM, 2,3-butanedione monoxime]
effect on GCP detachment from laminin (GCPs plated on laminin): caused considerable release of GCPs by themselves

stimulation of MARCKS and GAP43 phosphorylation (protein kinase C (PKC)): not
Compound: CCCCC/C=C\C[C@@H](O)/C=C/C=C\C/C=C\CCCC(=O)O [12(R)-HETE]
effect of agent alone on pseudopod length (MAT-Lu cells): essentially inactive; also recorded: small reduction in pseudopod length
